Each structure is given as a SMILES string.

Among the data in PMC6244159, “Structure and Function Studies of Asian Corn Borer Ostrinia furnacalis Pheromone Binding Protein2” (Scientific Reports, 2018) are Kd values, retold here.

This test deals with T1, OfurPBP2 (Ostrinia furnacalis pheromone binding protein 2) (Ostrinia furnacalis, UniProt E7CCA0).
T1 construct: gene PBP2; full-length OfurPBP2, recombinant soluble (E. coli Origami 2), delipidated, pH 6.5
T1 sequence (E7CCA0 23-166): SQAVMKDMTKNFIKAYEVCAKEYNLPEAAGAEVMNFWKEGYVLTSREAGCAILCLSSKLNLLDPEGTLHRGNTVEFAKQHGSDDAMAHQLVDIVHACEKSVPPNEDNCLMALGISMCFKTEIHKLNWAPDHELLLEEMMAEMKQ
The test is described as follows: fluorescence titration of the NPN probe (emission at […] nm), single-site fit.

Regarding `c1ccc(Nc2cccc3ccccc23)cc1` [N-phenyl-1-naphthylamine], binding was characterised by a dissociation constant (Kd) of 6.49 ± 1.01 µM.

As a reminder, the Kd is a measure of binding affinity in units of concentration. A high value points to a looser complex.
